Measured values: patent US20120283293A1, “Methods of neuroprotection involving Prostaglandin E2 EP4 (PGE2 EP4) receptor activation” (The Board of Trustees of the Leland Stanford Junior …, priority 2011, published 2012)

Legend:
[1] = test system: NF-κB subunits p65 and p50 in BV-2 cells; experiment: NF-κB p65/p50 nuclear translocation in LPS-stimulated BV-2 cells (Western, immunofluorescence); format: cell-based, murine
Method: Nuclear and cytoplasmic fractions of BV-2 cells were prepared at several time points after treatment (0-120 minutes) using the nuclear extract kit from Active Motif (Carlsbad, Calif.). Briefly, cells were washed, collected in ice-cold PBS in the presence of phosphatase inhibitors, and centrifuged at 300×g for 5 min at 4° C. Cell pellets were resuspended in hypotonic buffer, treated with detergent, and centrifuged at 14,000×g for 30 sec at 4° C. After collection of the cytoplasmic fraction, nuclei were solubilized for 30 min in lysis buffer containing protease inhibitors. Lysates were centrifuged at 14,000×g for 30 min at 4° C. and supernatants were collected for NF-κB studies. To prepare whole cell lysates for phospho-Akt and phospho-IKK studies, cells were washed in ice-cold PBS and lysed in 20 mM Tris-HCl, pH 7.5, 150 mM NaCl, 1 mM Na2EDTA, 1 mM EGTA, 1% Triton, 2.5 mM sodium pyrophosphate, 1 mM β-glycerophosphate, 1 mM orthovanadate, 1 μg/ml leupeptin and 1 mM PMSF. Lysates were sonicated for 5 seconds, centrifuged at 14,000×g for 10 min at 4° C. and supernatants were collected for phospho-Akt and phospho-IKK studies. All protein concentrations were determined using the Bradford protein assay.
Western blot analysis. Protein (20 μg per lane) was fractionated using 12% SDS-PAGE and electrophoretically transferred to PVDF membranes (Bio-Rad, Hercules, Calif.). For phospho-Akt/Akt and phospho-IKK/IKK studies, membranes were probed with anti phospho-Ser473 Akt antibody or anti-phospho-IKK antibody (1:1000, Cell signaling, Beverly, Mass.) and anti-Akt and anti-IKK antibodies (1:1000; Cell Signaling). For NF-κB nuclear translocation studies, membranes were probed with anti-NF-κB p105/p50 antibody (1:5000, Abcom, Cambridge, Mass.) or anti-NF-κB p65 antibody (1:300, Santa Cruz Biotechnology). Loading controls included anti-actin antibody (1:10,000, Santa Cruz Biotechnology, Inc. Santa Cruz, Calif.) for cytosolic fractions and anti-lamin B1 antibody (1:10,000, Abcom, Cambridge, Mass.) for nuclear fractions. Immunoreactivity was detected using either sheep anti-rabbit or sheep anti-mouse HRP-conjugated secondary antibody (Amersham Biosciences, Arlington Heights, Ill.), followed by enhanced chemiluminescence (Pierce). Autoradiographic signals were quantified using NIH Image. Experiments were repeated in triplicate.
BV-2 cells were seeded on poly-L-Lysine coated glass coverslips and were maintained in culture for at least 24 hours before treatment with LPS+/−AE1-329. After one hour of treatment, cells were fixed with 4% paraformaldehyde and processed for immunocytochemistry using established protocols. NF-κB cellular localization was detected using rabbit anti-NF-κB p65 antibody (1:200, Santa Cruz Biotechnology) and Cy3-conjugated donkey anti-rabbit secondary antibody (Jackson ImmunoResearch Laboratories, West Grove, Pa.). Nuclei were visualized using Hoechst 33258 dye (MP Biomedicals, Solon, Ohio). Images were acquired using a Nikon Eclipse E600 microscope (Nikon Instruments, Melville, N.Y.) and a Hamamatsu Orca-ER digital camera (Hamamatsu Photonics, Bridgewater, N.J.). For quantification of nuclear NF-κB p65 levels, images were analyzed using the measurements module of Volocity 4.3.2 image analysis software (Improvision Inc., Waltham, Mass.). […] For data quantification, each data point represented the average NF-κB p65 signal from the nuclei in one field of view (>100 cells). […]

[2] = test system: PKA activity in BV-2 cells; experiment: cAMP dependent protein kinase A (PKA) activity assay in BV-2 cells; format: cell-based, murine; conditions: AE1-329 100 nM alone or with LPS 100 ng/ml
Method: PKA activity was determined using the PKA kinase activity assay kit (Assay designs, Ann Arbor, Mich.). Cells were harvested 3 minutes after stimulation, and ELISA was carried out according to the manufacturer's instructions. Kinase activity was calculated as (sample absorbance—blank absorbance)/μg protein and normalized to the average value of vehicle.
Downstream signaling events for EP4, a […] receptor, were investigated in LPS treated BV-2 cells (see FIG. 3). […] The increase in PKA activity from EP4 receptor signaling was blocked with the PKA inhibitor H89 at doses of 5 μM and 10 μM (FIG. 3B).

SMILES: COCc1ccccc1CC[C@H](O)/C=C/[C@H]1[C@H](O)CC(=O)[C@@H]1SCCCSCC(=O)O [AE1-329]
- nuclear p65 immunofluorescent signal ([1]; BV-2 cells, 60 minutes after LPS 100 ng/ml, AE1-329 100 nM): significantly attenuated
- LPS-induced nuclear translocation of NF-κB subunits p65 and p50 (Western) ([1]; BV-2 cells, LPS 100 ng/ml, AE1-329 100 nM, vs vehicle): reduced levels of NF-κB nuclear translocation
- time of maximal attenuation of nuclear translocation, NF-κB p65 ([1]; BV-2 cells, LPS + AE1-329): 60 min
- time of maximal attenuation of nuclear translocation, p50 ([1]; BV-2 cells, LPS + AE1-329): 120 min
- cytoplasmic levels of p65 and p50 ([1]; LPS-treated BV-2 cells, AE1-329 vs vehicle): increased
- PKA activity [2]: significantly increased
